Experimental data: patent publication US8653263B2 (Janssen Pharmaceutica, priority 2009, dated 2014)

Target: human orexin-2 receptor (Homo sapiens (Human), UniProt O43614)
Experiment: Human orexin 2 receptor radioligand binding ([3H]-EMPA competition)
Conditions: HEK293 cells stably expressing human orexin-2 receptor; [3H]-EMPA 5 nM final; apparent Ki=IC50/(1+C/Kd), Kd=2 nM; read-out: OR 2 Ki

human orexin-2 receptor, sequence (O43614 whole entry): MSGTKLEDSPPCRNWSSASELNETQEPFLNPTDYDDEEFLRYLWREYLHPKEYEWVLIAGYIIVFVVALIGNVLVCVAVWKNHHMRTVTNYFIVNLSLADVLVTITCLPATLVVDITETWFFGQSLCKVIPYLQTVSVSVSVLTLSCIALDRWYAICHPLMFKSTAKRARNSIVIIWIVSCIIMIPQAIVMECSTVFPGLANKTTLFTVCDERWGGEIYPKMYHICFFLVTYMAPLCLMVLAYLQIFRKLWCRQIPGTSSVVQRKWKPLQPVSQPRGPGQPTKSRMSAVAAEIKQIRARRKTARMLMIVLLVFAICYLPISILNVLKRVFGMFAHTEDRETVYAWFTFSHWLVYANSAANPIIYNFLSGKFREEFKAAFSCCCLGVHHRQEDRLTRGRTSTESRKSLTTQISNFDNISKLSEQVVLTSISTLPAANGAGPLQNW

| Structure (SMILES) | Ki [µM] |
| --- | --- |
| Cc1cc(C)nc(N2CC3CN(C(=O)c4ccccc4-c4nc(C)no4)CC3C2)n1 (centres unmarked) [Example 306, 2-(4,6-Dimethylpyrimidin-2-yl)-5-{[2-(3-methyl-1,2,4-oxadiazol-5-yl)phenyl]carbonyl}octahydropyrrolo[3,4-c]pyrrole] | 0.039 |
| Cc1cc(N2CC3CN(C(=O)c4ccccc4-c4nnc[nH]4)CC3C2)nc(C(F)(F)F)n1 (centres unmarked) [Example 96, 2-[6-Methyl-2-(trifluoromethyl)pyrimidin-4-yl]-5-{[2-(4H-1,2,4-triazol-3-yl)phenyl]carbonyl}octahydropyrrolo[3,4-c]pyrrole] | 0.068 |
| COc1ccc(C(=O)N2CC3CN(c4nc5ccccc5o4)CC3C2)c(OC)c1 (centres unmarked) [Example 183, (5-Benzooxazol-2-yl-hexahydro-pyrrolo[3,4-c]pyrrol-2-yl)-(2,4-dimethoxy-phenyl)-methanone] | 5 |
| Cc1cc(C)nc(N2CC3CN(C(=O)c4ccc(F)cc4C(F)(F)F)CC3C2)n1 (centres unmarked) [Example 89, 2-(4,6-Dimethylpyrimidin-2-yl)-5-{[4-fluoro-2-(trifluoromethyl)phenyl]carbonyl}octahydropyrrolo[3,4-c]pyrrole] | 0.452 |
| Cc1noc(-c2ccccc2C(=O)N2CC3CN(c4nc(C)c5c(n4)CCC5)CC3C2)n1 (centres unmarked) [Example 319, 4-Methyl-2-[5-{[2-(3-methyl-1,2,4-oxadiazol-5-yl)phenyl]carbonyl}hexahydropyrrolo[3,4-c]pyrrol-2(1H)-yl]-6,7-dihydro-5H-cyclopenta[d]pyrimidine] | 0.018 |
| O=C(c1ccccc1-n1cccc1)N1CC2CN(c3cnc4ccccc4n3)CC2C1 (centres unmarked) [Example 27, 2-[5-{[2-(1H-Pyrrol-1-yl)phenyl]carbonyl}hexahydropyrrolo[3,4-c]pyrrol-2(1H)-yl]quinoxaline] | 0.74 |
| Cc1cnc(C)c(N2CC3CN(C(=O)c4ccc(F)cc4-n4nccn4)CC3C2)n1 (centres unmarked) [Example 104, 2-(3,6-Dimethylpyrazin-2-yl)-5-{[4-fluoro-2-(2H-1,2,3-triazol-2-yl)phenyl]carbonyl}octahydropyrrolo[3,4-c]pyrrole] | 0.042 |
| COc1ccnc(N2CC3CN(C(=O)c4ccccc4-c4cccc(Cl)c4)CC3C2)n1 (centres unmarked) [Example 55, 2-[(3′-Chlorobiphenyl-2-yl)carbonyl]-5-(4-methoxypyrimidin-2-yl)octahydro-pyrrolo[3,4-c]pyrrole] | 0.744 |
| Cc1cc(C)nc(N2CC3CN(C(=O)c4occc4-c4ccccc4)CC3C2)n1 (centres unmarked) [Example 13, 2-(4,6-Dimethylpyrimidin-2-yl)-5-[(3-phenylfuran-2-yl)carbonyl]octahydropyrrolo[3,4-c]pyrrole] | 0.089 |
| O=C(c1ccccc1-c1ccccc1)N1CC2CN(c3nc4ccc(F)cc4s3)CC2C1 (centres unmarked) [Example 176, 2-[5-(Biphenyl-2-ylcarbonyl)hexahydropyrrolo[3,4-c]pyrrol-2(1H)-yl]-6-fluoro-1,3-benzothiazole] | 0.236 |
| Cc1cc(C)nc(N2CC3CN(C(=O)c4cccc(C)c4-n4ccnn4)CC3C2)n1 (centres unmarked) [Example 267, (5-(4,6-Dimethylpyrimidin-2-yl)hexahydropyrrolo[3,4-c]pyrrol-2(1H)-yl)(3-methyl-2-(1H-1,2,3-triazol-1-yl)phenyl)methanone] | 10 |
| Cc1cc(C)nc(N2CC3CN(C(=O)c4ccc(F)cc4-c4ncco4)CC3C2)n1 (centres unmarked) [Example 369, (5-(4,6-Dimethylpyrimidin-2-yl)hexahydropyrrolo[3,4-c]pyrrol-2(1H)-yl)(4-fluoro-2-(oxazol-2-yl)phenyl)methanone] | 0.019 |
| COc1ccc(C(=O)N2CC3CN(c4cnc5ccccc5n4)CC3C2)c(OC)c1 (centres unmarked) [Example 191, (2,4-Dimethoxy-phenyl)-(5-quinoxalin-2-yl-hexahydro-pyrrolo[3,4-c]pyrrol-2-yl)-methanone] | 2.66 |
| Cc1cc(C)nc(N2CC3CN(C(=O)c4c(-n5nccn5)ccc5c4OCO5)CC3C2)n1 (centres unmarked) [Example 327, [5-(4,6-Dimethyl-pyrimidin-2-yl)-hexahydro-pyrrolo[3,4-c]pyrrol-2-yl]-(5-[1,2,3]triazol-2-yl-benzo[1,3]dioxol-4-yl)methanone] | 0.103 |
| COc1cc(OC)nc(N2CC3CN(C(=O)c4cc(C)ccc4-n4nccn4)CC3C2)n1 (centres unmarked) [Example 129, 2-(4,6-Dimethoxypyrimidin-2-yl)-5-{[5-methyl-2-(2H-1,2,3-triazol-2-yl)phenyl]carbonyl}octahydropyrrolo[3,4-c]pyrrole] | 0.111 |
| Cc1cc(C)nc(N2CC3CN(C(=O)c4cccc(F)c4-c4ccccn4)CC3C2)n1 (centres unmarked) [Example 367, (5-(4,6-Dimethylpyrimidin-2-yl)hexahydropyrrolo[3,4-c]pyrrol-2(1H)-yl)(3-fluoro-2-(pyridin-2-yl)phenyl)methanone] | 0.015 |
| Cc1cc(N2CC3CN(C(=O)c4cc(F)ccc4-n4nccn4)CC3C2)nc(C)n1 (centres unmarked) [Example 115, [5-(2,6-Dimethyl-pyrimidin-4-yl)-hexahydro-pyrrolo[3,4-c]pyrrol-2-yl]-(5-fluoro-2-[1,2,3]triazol-2-yl-phenyl)-methanone] | 5 |
| COc1ccccc1C(=O)N1CC2CN(c3nc4ccccc4o3)CC2C1 (centres unmarked) [Example 180, (5-Benzooxazol-2-yl-hexahydro-pyrrolo[3,4-c]pyrrol-2-yl)-(2-methoxy-phenyl)-methanone] | 2.3 |

| Structure (SMILES) | Ki [µM] |
| --- | --- |
| Cc1noc(-c2ccccc2C(=O)N2CC3CN(c4nc(C)c(Cl)c(C)n4)CC3C2)n1 (centres unmarked) [Example 318, 2-(5-Chloro-4,6-dimethylpyrimidin-2-yl)-5-{[2-(3-methyl-1,2,4-oxadiazol-5-yl)phenyl]carbonyl}octahydropyrrolo[3,4-c]pyrrole] | 0.005 |
| Cc1cc(C)nc(N2CC3CN(C(=O)c4ccccc4F)CC3C2)n1 (centres unmarked) [Example 53, [5-(4,6-Dimethyl-pyrimidin-2-yl)-hexahydro-pyrrolo[3,4-c]pyrrol-2-yl]-(2-fluoro-phenyl)-methanone] | 5 |
| Cc1ccc(-c2ccccc2C(=O)N2CC3CN(c4nccc(-c5ccccc5)n4)CC3C2)cc1 (centres unmarked) [Example 195, (4′-Methyl-biphenyl-2-yl)-[5-(4-phenyl-pyrimidin-2-yl)-hexahydro-pyrrolo[3,4-c]pyrrol-2-yl]-methanone] | 1.1 |
| Cc1cc(C)nc(N2CC3CN(C(=O)c4ccccc4-c4nnc[nH]4)CC3C2)n1 (centres unmarked) [Example 14, 2-(4,6-Dimethylpyrimidin-2-yl)-5-{[2-(1H-1,2,4-triazol-5-yl)phenyl]carbonyl}octahydro-pyrrolo[3,4-c]pyrrole] | 0.028 |
| N#Cc1ccccc1C(=O)N1CC2CN(c3cnc4ccccc4n3)CC2C1 (centres unmarked) [Example 26, 2-(5-Quinoxalin-2-yl-hexahydro-pyrrolo[3,4-c]pyrrole-2-carbonyl)-benzonitrile] | 9 |
| Cc1cc(C)nc(N2CC3CN(C(=O)c4ccccc4C(C)C)CC3C2)n1 (centres unmarked) [Example 91, 2-(4,6-Dimethylpyrimidin-2-yl)-5-{[2-(1-methylethyl)phenyl]carbonyl}octahydro-pyrrolo[3,4-c]pyrrole] | 0.541 |
| O=C(c1ccccc1-c1nnc[nH]1)N1CC2CN(c3cnc4ccccc4n3)CC2C1 (centres unmarked) [Example 85, 2-[5-{[2-(4H-1,2,4-Triazol-3-yl)phenyl]carbonyl}hexahydropyrrolo[3,4-c]pyrrol-2(1H)-yl]quinoxaline] | 0.098 |
| Cc1cccc(-c2cc(F)ccc2C(=O)N2CC3CN(c4nc(C)cc(C)n4)CC3C2)n1 (centres unmarked) [Example 335, (5-(4,6-dimethylpyrimidin-2-yl)hexahydropyrrolo[3,4-c]pyrrol-2(1H)-yl)(4-fluoro-2-(6-methylpyridin-2-yl)phenyl)methanone] | 0.059 |
| O=C(c1ccccc1-n1nccn1)N1CC2CN(c3nccc(-c4ccco4)n3)CC2C1 (centres unmarked) [Example 151, 2-(4-Furan-2-ylpyrimidin-2-yl)-5-{[2-(2H-1,2,3-triazol-2-yl)phenyl]carbonyl}octahydropyrrolo[3,4-c]pyrrole] | 0.184 |
| COc1cccc(OC)c1C(=O)N1CC2CN(c3nc4ccc(Cl)cc4s3)CC2C1 (centres unmarked) [Example 189, [5-(6-Chloro-benzothiazol-2-yl)-hexahydro-pyrrolo[3,4-c]pyrrol-2-yl]-(2,6-dimethoxy-phenyl)-methanone] | 1.6 |
| Cc1ccc2ccccc2c1C(=O)N1CC2CN(c3nccc(-c4ccccc4)n3)CC2C1 (centres unmarked) [Example 25, 2-[(2-Methylnaphthalen-1-yl)carbonyl]-5-(4-phenylpyrimidin-2-yl)octahydropyrrolo[3,4-c]pyrrole] | 0.11 |
| Cc1cc(C)nc(N2CC3CN(C(=O)c4ncccc4-c4nc(C)no4)CC3C2)n1 (centres unmarked) [Example 386, 2-(4,6-Dimethylpyrimidin-2-yl)-5-{[3-(3-methyl-1,2,4-oxadiazol-5-yl)pyridin-2-yl]carbonyl}octahydropyrrolo[3,4-c]pyrrole] | 0.94 |
| Cc1noc(-c2ccccc2C(=O)N2CC3CN(c4ncc(F)c(C)n4)CC3C2)n1 (centres unmarked) [Example 310, 2-(5-Fluoro-4-methylpyrimidin-2-yl)-5-{[2-(3-methyl-1,2,4-oxadiazol-5-yl)phenyl]carbonyl}octahydropyrrolo[3,4-c]pyrrole] | 0.064 |
| COc1ccc(C(=O)N2CC3CN(c4nccc(C)n4)CC3C2)c(OC)c1 (centres unmarked) [Example 186, (2,4-Dimethoxy-phenyl)-[5-(4-methyl-pyrimidin-2-yl)-hexahydro-pyrrolo[3,4-c]pyrrol-2-yl]-methanone] | 10 |
| O=C(c1ccccc1-n1nccn1)N1CC2CN(c3nc4ccccc4o3)CC2C1 (centres unmarked) [Example 144, 2-[5-{[2-(2H-1,2,3-Triazol-2-yl)phenyl]carbonyl}hexahydropyrrolo[3,4-c]pyrrol-2(1H)-yl]-1,3-benzoxazole] | 0.087 |
| Cc1cc(C)nc(N2CC3CN(C(=O)c4c(F)cccc4-c4ncccn4)CC3C2)n1 (centres unmarked) [Example 73, 2-(4,6-Dimethylpyrimidin-2-yl)-5-[(2-fluoro-6-pyrimidin-2-ylphenyl)carbonyl]octahydropyrrolo[3,4-c]pyrrole] | 0.007 |
| Cc1cc(C)nc(N2CC3CN(C(=O)c4sccc4-n4cccc4)CC3C2)n1 (centres unmarked) [Example 8, 2-(4,6-Dimethylpyrimidin-2-yl)-5-{[3-(1H-pyrrol-1-yl)thiophen-2-yl]carbonyl}octahydro-pyrrolo[3,4-c]pyrrole] | 0.542 |
